Assay results as given in patent publication US10852236B2, “Method of measuring plant nutrient transport using near-infrared imaging” (Curadel, LLC, priority 2017, dated 2020).

Columns and labels:
[1] = solubility of the dye in the plant nutrient; type: physicochemical; settings: dye in its small molecule form; nutrient may be water
[2] = in vivo early half-life of the dye; settings: dye in its small molecule form

solubility in the nutrient [1]: somewhat less soluble | in vivo early half-life [2]: shorter
Structure (SMILES): CC1(C)C(/C=C/C=C/C=C/C=C2\N(CCCCS(=O)(=O)O)c3ccc4ccccc4c3C2(C)C)=[N+](CCCCS(=O)(=O)[O-])c2ccc3ccccc3c21 [Indocyanine green, indocyanine green]
